# Measurements published in PubChem BioAssay AID812 (SRMLSC, 2007).
# Active and inactive are the calls of the source. The rule behind the calls is not given here.
# Tested on: Saccharomyces cerevisiae lifespan extension, no nicotinamide
# Test: yeast lifespan extension without nicotinamide, confirmation, yeast lifespan extension project, S. cerevisiae (AID 812);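 note: growth read as optical density after 42 hours of incubation at 30C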
row,SMILES,EC50
1,CC1=NN(Cc2ccccc2)C(=O)C1C(c1ccccc1)C(C#N)C#N (stereo unspecified),> 40 µM (inactive)
2,O=C(/C(=C/O)N=Nc1ccc(Cl)cc1)c1ccncc1,> 40 µM (inactive)
3,O=C(O)Cc1ccc(N=Cc2c(O)ccc3ccccc23)cc1,> 40 µM (inactive)
4,COc1cccc(C(=O)Oc2cc(N)n(S(=O)(=O)c3ccc(C)cc3)n2)c1OC,> 40 µM (inactive)
5,COC(=O)c1sc(S(=O)(=O)Nc2ccc(Br)cc2)c(C(=O)OC)c1C,> 40 µM (inactive)
6,Cc1ccc(CNc2nc3ccccc3s2)s1,> 40 µM (inactive)
7,CCCc1cc(=O)oc2cc(C)c(CN3CCCC3)c(O)c12,> 40 µM (inactive)
8,Cc1c(NC(=O)C(=O)/C=C(\O)c2ccc(Cl)cc2)c(=O)n(-c2ccccc2)n1C,> 40 µM (inactive)
9,COc1ccc(C(=O)On2c(-c3ccc(Br)cc3)nc3ccccc3c2=O)cc1,> 40 µM (inactive)
10,CC(C)CN=C(NS(=O)(=O)c1ccccc1)C(Cl)(Cl)Cl,> 40 µM (inactive)
11,O=C(CCl)N1c2ccccc2OCC1c1ccccc1 (stereo unspecified),> 40 µM (inactive)
12,CCCC(=O)Nc1ccc(C(=O)NNC(=S)NC(=O)c2cccs2)cc1,> 40 µM (inactive)
13,COCCN(CCOC)S(=O)(=O)c1ccc(C(=O)Nc2sc3c(c2C(N)=O)CCCCC3)cc1,> 40 µM (inactive)
14,CN1CCN(C(=S)Nc2cc([N+](=O)[O-])ccc2Cl)CC1,> 40 µM (inactive)
15,Fc1cccc2sc(Nc3nnc(-c4ccccc4)o3)nc12,> 40 µM (inactive)
16,O=C1CC(c2ccccc2)CC(O)=C1C=NCCN1CCOCC1 (stereo unspecified),> 40 µM (inactive)
17,O=C1c2ccccc2NC(c2cnc3ccccc3n2)N1O (stereo unspecified),> 40 µM (inactive)
18,CSc1ccc(S(=O)(=O)NCc2ccc(Cl)cc2Cl)cc1,> 40 µM (inactive)
19,O=C1OC2(CCCCC2)OC(=O)C1=CNc1nc2ccccc2s1,> 40 µM (inactive)
20,COC(=O)c1cc(=O)n(-c2ccccc2)c(=Nc2ccccc2)s1,> 40 µM (inactive)
21,Cc1c(NC(=O)C(=O)/C=C(/O)c2ccccc2)c(=O)n(-c2ccccc2)n1C,> 40 µM (inactive)
22,CC(=O)Nc1nc(C)c(Oc2ccccc2)c(=O)[nH]1,> 40 µM (inactive)
23,CN1OC(c2ccccc2)=C(CO)C1c1ccccc1 (stereo unspecified),> 40 µM (inactive)
24,CC(c1ccccc1)N1CCn2c(nc3cc(NC(=O)c4cccs4)ccc32)C1 (stereo unspecified),> 40 µM (inactive)
25,COc1ccccc1CN(Cc1nc2ccccc2c(=O)[nH]1)C(=O)Nc1cccc(C)c1,> 40 µM (inactive)
26,Cc1ccccc1Oc1cc(-n2ncc(Cl)c(Cl)c2=O)ncn1,> 40 µM (inactive)

row,SMILES,EC50
1,COc1ccc(CNC(=O)C2CCN(c3nc(OC)nc(OC)n3)CC2)cc1,> 40 µM (inactive)
2,CCNCCNC(=O)c1c(O)c2cccc3c2n(c1=O)CCC3,> 40 µM (inactive)
3,O=C(N/N=C/c1ccc(F)cc1)c1c(O)c2ccccc2[nH]c1=O,> 40 µM (inactive)
4,COc1ccccc1C(=O)Oc1cc(N)n(S(=O)(=O)c2ccc(C)cc2)n1,> 40 µM (inactive)
5,CCOC(=O)CCCNC(=O)COc1ccccc1C#N,> 40 µM (inactive)
6,COC(=O)C1=C(C(=O)OC)SC(=C2C(=S)C(C)(C)N(C(=O)C(C)C)c3ccccc32)S1,> 40 µM (inactive)
7,O=C1C=CCC(/C=C/c2ccccc2)O1 (stereo unspecified),> 40 µM (inactive)
8,O=C1Nc2cc(Cl)c(Cl)cc2N(O)N1c1cc(Cl)cc(Cl)c1,> 40 µM (inactive)
9,CCOC(=O)CCS(=O)(=O)c1nc(-c2ccccc2)cc(C(F)(F)F)n1,> 40 µM (inactive)
10,C[C@]12CC[C@@H]3c4ccc(O)cc4CC[C@H]3[C@@H]1CC[C@@H]2OC(=O)CCC(=O)O,> 40 µM (inactive)
11,C=CCn1c(O)c(C(CC)=NCCN2CCOCC2)c(=O)[nH]c1=O,> 40 µM (inactive)
12,O=[N+]([O-])c1cc2oc3c(c2c(C=NCc2ccccc2)c1O)CCCC3,> 40 µM (inactive)
13,O=c1[nH]c2ccccc2nc1C(Cl)c1ccccc1 (stereo unspecified),> 40 µM (inactive)
14,CCn1c(=O)c2c(O)cc(=O)oc2c2ccccc21,> 40 µM (inactive)
15,Cc1ccc(C(=O)/C=C\C(=O)c2ccc(C)cc2)cc1,> 40 µM (inactive)
16,O=C(Nc1cccc(Cl)c1)c1ccc2c(=O)n3c(nc2c1)CCCCC3,> 40 µM (inactive)
17,CC(C)c1ccc2occ(-c3nn[nH]n3)c(=O)c2c1,> 40 µM (inactive)
18,CC[n+]1ccc(C[n+]2ccccc2)c2ccccc21,> 40 µM (inactive)
19,CC1C/C(=C\c2cccnc2)C(=O)/C(=C/c2cccnc2)C1 (stereo unspecified),> 40 µM (inactive)
20,C=CCn1c(C)cc(C(=O)CSc2nc3ccccc3c(=O)[nH]2)c1C,> 40 µM (inactive)
21,O=[N+]([O-])c1cc(S(=O)(=O)N2CCCCCC2)ccc1F,> 40 µM (inactive)
22,Cc1ccc(OCC(=O)c2c(O)c3ccccc3oc2=O)cc1C,> 40 µM (inactive)
23,CC1Cc2ccccc2N1C(=O)Cn1cnc2ccccc2c1=O (stereo unspecified),> 40 µM (inactive)
24,Cc1[nH]n(-c2ccccc2)c(=O)c1N=Nc1nccs1,> 40 µM (inactive)
25,CCOc1ccc(/C=C2/C(=O)NC(=O)N(CCc3ccc(F)cc3)C2=O)cc1,> 40 µM (inactive)
26,CCC(=O)Nc1ccccc1Sc1ncnc2scc(-c3ccccc3)c12,> 40 µM (inactive)

row,SMILES,EC50
1,COc1ccc(C(C)NC(=O)c2ccccc2)cc1 (stereo unspecified),> 40 µM (inactive)
2,O=C(N/N=C/c1ccccc1)c1c(O)c2ccccc2[nH]c1=O,> 40 µM (inactive)
3,C/C(=N\NC(=O)c1cccnc1)c1c(O)cc(C)oc1=O,> 40 µM (inactive)
4,CC(=NCCc1c(C)[nH]c2ccc(C)cc12)C1=C(O)CC(c2ccccc2)CC1=O (stereo unspecified),> 40 µM (inactive)
5,CCCN1C(=O)/C(=C/c2ccncc2)SC1=S,> 40 µM (inactive)
6,C=C(C(=O)c1ccccc1)C(CC(=O)c1ccccc1)c1ccccc1 (stereo unspecified),> 40 µM (inactive)
7,O=C(Cn1nc(Cl)nc1Cl)c1cc2ccccc2oc1=O,> 40 µM (inactive)
8,CC(C)=C1C(=O)NN(c2ccc(C)c(Cl)c2)C1=O,> 40 µM (inactive)
9,O=c1c2ccccc2nc(-c2ccc(Cl)c(Cl)c2)n1O,> 40 µM (inactive)
10,O=S1(=O)C=C(Sc2nc3ccccc3s2)c2ccccc21,> 40 µM (inactive)
11,Cc1ccc(/C=C/C(=O)C2C(=O)c3ccccc3C2=O)cc1,> 40 µM (inactive)
12,Cc1cc(C)c(S(=O)(=O)c2ccccc2)c(OC(=O)c2ccc(Cl)cc2Cl)n1,> 40 µM (inactive)
13,CCOC(=O)c1c(NC(=O)C2C3C=CC(C3)C2C(=O)O)sc2c1CCC(CC)C2 (stereo unspecified),> 40 µM (inactive)
14,CCN(CCO)C(=O)C12CCC(C)(C(=O)C1)C2(C)C (stereo unspecified),> 40 µM (inactive)
15,CC(=O)Oc1c(C(=O)c2nnc(C)o2)c(=O)n(C)c2ccccc12,> 40 µM (inactive)
16,O=S1(=O)C=C(Sc2nnc(-c3ccccc3)o2)c2ccccc21,> 40 µM (inactive)
17,CCOc1cc(Br)c(Br)c(C=Nc2ccc(NC(C)=O)cc2)c1O,> 40 µM (inactive)
18,CCOC(=O)CC1=NN(c2ccccc2)C(=O)/C1=C\c1ccc(OC)cc1OC,> 40 µM (inactive)
19,O=C(NNC1=Nc2cccc3cccc1c23)c1ccccc1Br,> 40 µM (inactive)
20,COc1ccccc1C(=O)Oc1ccc2c(c1)O/C(=C\c1ccncc1)C2=O,> 40 µM (inactive)
21,CCOc1ccc(OCC(=O)c2c(O)c3ccccc3oc2=O)cc1,> 40 µM (inactive)
22,O=Cc1ccccc1OS(=O)(=O)c1ccccc1,> 40 µM (inactive)
23,N#CSCC(=O)N1c2ccccc2CCc2ccccc21,> 40 µM (inactive)
24,CC(C)(C)C(=O)Cn1c(=N)n(Cc2ccccc2)c2ccccc21,> 40 µM (inactive)
25,O=c1c2[nH]c3ccccc3c2ncn1Cc1ccco1,> 40 µM (inactive)
26,Oc1ccc2ccccc2c1/C=N/c1nccs1,> 40 µM (inactive)

row,SMILES,EC50
1,CN(C)C=C1C(=O)N(C2CCCCC2)C(=O)N(C2CCCCC2)C1=O,> 40 µM (inactive)
2,CC(=O)Oc1oc(-c2ccccc2)nc1C=Nc1ccccc1,> 40 µM (inactive)
3,O=C(NCc1cccnc1)c1ccc(S(=O)(=O)N2CCCCC2)cc1,> 40 µM (inactive)
4,COc1ccccc1-c1c(C)oc2cc(OC(=O)c3ccco3)ccc2c1=O,> 40 µM (inactive)
5,C=CCN(CC=C)S(=O)(=O)c1ccc2nc(NC(=O)C(C)C)sc2c1,> 40 µM (inactive)
6,CC1CCc2cc(F)cc3c(O)c(C(=O)NCc4ccco4)c(=O)n1c23 (stereo unspecified),> 40 µM (inactive)
7,COc1cc(OC)cc(-c2nc3ccccc3c(=O)n2OC(=O)c2ccc(Br)cc2)c1,> 40 µM (inactive)
8,CCOC(=O)CSC1=NC(=O)/C(=C/c2ccc(OC)cc2)S1,> 40 µM (inactive)
9,Cc1cccc(OC(=O)n2c(=S)oc3cc(Cl)ccc32)c1,> 40 µM (inactive)
10,Cc1ccc(N(C(=O)CS(=O)CC(=O)Nc2ccc(F)cc2)C(C(=O)NC2CCCCC2)c2ccco2)cc1 (stereo unspecified),> 40 µM (inactive)
11,Nc1sc(-c2ccccc2)cc1C(=O)O,> 40 µM (inactive)
12,CCOC(=O)C1CCN(C(c2cc3ccc(C)c(C)c3[nH]c2=O)c2nnnn2C2CCCCC2)CC1 (stereo unspecified),> 40 µM (inactive)
13,COc1ccc(O)c(C(=O)c2cc(C#N)c(=O)n(CC3CCCO3)c2)c1 (stereo unspecified),> 40 µM (inactive)
14,Cc1ccc(N2NC(=O)/C(=C\c3cc4c(cc3[N+](=O)[O-])OCO4)C2=O)cc1C,> 40 µM (inactive)
15,Cc1ccc(-c2ccc(/C=C3\C(=O)ON=C3c3ccccc3)o2)c([N+](=O)[O-])c1,> 40 µM (inactive)
16,N#Cc1ccc(-c2ccc(OCC(=O)NCCc3ccccc3)cc2)cc1,> 40 µM (inactive)
17,COC(=O)C(=O)/C=C(\O)c1ccc(C)cc1,> 40 µM (inactive)
18,COC(=O)c1cc(OC)c(OC)cc1NC(=S)Nc1cccc(C(C)=O)c1,> 40 µM (inactive)
19,CCCCn1c(=O)c(C(=O)Nc2cnccn2)c(O)c2ccccc21,> 40 µM (inactive)
20,COc1ccc(C(=O)C(CN2CCOCC2)c2ccccc2)cc1 (stereo unspecified),> 40 µM (inactive)
21,Cc1cc(N2C(=O)CC(Cc3ccccc3)C2=O)no1 (stereo unspecified),> 40 µM (inactive)
22,O=C1ON=C(c2ccccc2)/C1=C/c1ccc(-c2ccccc2[N+](=O)[O-])o1,> 40 µM (inactive)
23,C=C(C(=O)c1ccccc1)C(C)CC(=O)c1ccccc1 (stereo unspecified),> 40 µM (inactive)
